In patent US5739319A, “Phthalocyanine or naphthalocyanine derivative” (Orient Chemical Industries, Ltd., priority 1995, dated 1998):

Columns and labels:
[1] = Solubility at room temperature; format: physicochemical; settings: for Solubility, Acetone: in words
Protocol: Then, solubility at room temperature of the resulting compound is measured.

[2] = background statement, in words; cited from earlier work

Solubility, DMF [1] [%] | Solubility, Acetone [1] | Solubility, Dilute aqueous alkaline solution [1] [%] | Solubility, Methanol [1] [%] | Solubility, Water [1] [%] | Substance | solubility in an organic solvent [2] | water-solubility [2]
> 2.0 | insoluble | < 1.5 | < 0.1 | – | tetrakis(sulfobenzamide) nickel naphthalocyanine [Example 4] | – | –
> 2.0 | insoluble | < 1.5 | < 0.1 | – | tetrakis(sulfobenzamide) copper naphthalocyanine [Example 5] | – | –

Further lines, the substance ahead of its results:

Substance | Solubility, DMF [1] [%] | Solubility, Acetone [1] | Solubility, Dilute aqueous alkaline solution [1] [%] | Solubility, Methanol [1] [%] | Solubility, Water [1] [%] | solubility in an organic solvent [2] | water-solubility [2]
C.I. Solvent Blue-70 | – | – | – | – | – | soluble in an organic solvent | –
Tetrasulfonic acid copper phthalocyanine [C.I. Acid Blue-249] | – | – | – | – | – | – | insufficient
tetrakis(sulfobenzamide) copper phthalocyanine [Example 1] | – | insoluble | – | > 5 | > 10 | – | –
tetrakis(sulfobenzamide) phthalocyanine [Example 2] | – | insoluble | – | > 5 | > 10 | – | –
